Measured values as given in patent EP4741395A1, “NOVEL COMPOUND SENSITIVE TO NITROGEN MONOXIDE AND PHARMACEUTICAL COMPOSITION COMPRISING SAME” (Omniamed Co. Ltd, priority 2023, dated 2025).

Key:
Raw 264.7 cell line = experiment: NO scavenging activity in LPS-treated immune cells (Griess reagent); format: cell-based; conditions: Mus musculus, RAW264.7, Raw 264.7, LPS 500 ng/mL, 24 hours, read-out: NO Scavenging Activity (%) (Mean±SD)
IL-6 (Interleukin-6) = experiment: Inhibition of inflammatory cytokine secretion in LPS-treated immune cells (IL-6 sandwich ELISA); format: cell-based; conditions: Mus musculus, RAW264.7, Raw 264.7, LPS 500 ng/mL, 24 hours, read-out: IL-6 Reduction Activity (%) (Mean±SD)
Experimental: Raw 264.7 cell line was seeded in a 48-well plate at a density of 8×10^4 cells/well, and cultured at 37°C in a DMEM medium including 10% FBS, 100 U/mL of penicillin and 100 µg/mL of streptomycin.
The medium was cultured overnight, and then replaced with a fresh medium including 10 µM of the pharmaceutical composition sensitive to nitrogen monoxide including the compound of each of Examples 1 and 11 to 13 and 500 ng/mL of LPS, and the fresh medium was cultured again for another 24 hours.
Lastly, the supernatant was collected, and then the level of IL-6 (Interleukin-6) expression was analyzed using a Sandwich enzyme-linked immunosorbent assay (ELISA). Specifically, a standard solution and 50 µL of the diluted supernatant were introduced to each well of a well plate coated with an antibody specific to IL-6, and after binding IL-6 to the immobilized antibody, the well was washed with a washing buffer, followed by a reaction with HRP as a secondary antibody for 30 minutes at room temperature. The well was washed three times with a washing buffer, then color was developed using TMB (3,3', 5,5'-tetramethyl benzidine) as a substrate, and the reaction was stopped using 1 M sulfuric acid to measure the degree of color development at an absorbance of 450 nm.

splenocytes = experiment: Inhibitory activity on cell proliferation in splenocytes (CCK-8 analysis); format: cell-based, C57BL/6 mouse; conditions: Mus musculus, Splenocyte, Concanavalin A 5 µg/mL, 72 hours, read-out: Inhibitory Activity on Cell Proliferation (%) (Mean±SD)
JAK 2 = biological target: T1, JAK 2 (Homo sapiens, UniProt O60674); experiment: JAK Human TK kinase enzymatic radiometric assay (Eurofins), JAK 2; format: biochemical; design: unit not given here; conditions: value close to 100 indicates low JAK activity of the compound
T1 construct: purchased Eurofins Scientific (assay service)
From the text: (§1) For the compounds of the Examples, JAK activity of each of the compounds was verified using the JAK Human TK Kinase Enzymatic Radiometric Kinase Profiler Assay service provided by Eurofins Scientific.
(§2) The activity was verified after inducing a reaction at the JAK 1, 2 and 3 active sites using radioactively labeled ATP.

JAK 3 = biological target: T2, JAK 3 (Homo sapiens, UniProt P52333); experiment: JAK Human TK kinase enzymatic radiometric assay (Eurofins), JAK 3; format: biochemical; design: unit not given here; conditions: value close to 100 indicates low JAK activity of the compound
T2 construct: purchased Eurofins Scientific (assay service)
T2 sequence (P52333 1-1124): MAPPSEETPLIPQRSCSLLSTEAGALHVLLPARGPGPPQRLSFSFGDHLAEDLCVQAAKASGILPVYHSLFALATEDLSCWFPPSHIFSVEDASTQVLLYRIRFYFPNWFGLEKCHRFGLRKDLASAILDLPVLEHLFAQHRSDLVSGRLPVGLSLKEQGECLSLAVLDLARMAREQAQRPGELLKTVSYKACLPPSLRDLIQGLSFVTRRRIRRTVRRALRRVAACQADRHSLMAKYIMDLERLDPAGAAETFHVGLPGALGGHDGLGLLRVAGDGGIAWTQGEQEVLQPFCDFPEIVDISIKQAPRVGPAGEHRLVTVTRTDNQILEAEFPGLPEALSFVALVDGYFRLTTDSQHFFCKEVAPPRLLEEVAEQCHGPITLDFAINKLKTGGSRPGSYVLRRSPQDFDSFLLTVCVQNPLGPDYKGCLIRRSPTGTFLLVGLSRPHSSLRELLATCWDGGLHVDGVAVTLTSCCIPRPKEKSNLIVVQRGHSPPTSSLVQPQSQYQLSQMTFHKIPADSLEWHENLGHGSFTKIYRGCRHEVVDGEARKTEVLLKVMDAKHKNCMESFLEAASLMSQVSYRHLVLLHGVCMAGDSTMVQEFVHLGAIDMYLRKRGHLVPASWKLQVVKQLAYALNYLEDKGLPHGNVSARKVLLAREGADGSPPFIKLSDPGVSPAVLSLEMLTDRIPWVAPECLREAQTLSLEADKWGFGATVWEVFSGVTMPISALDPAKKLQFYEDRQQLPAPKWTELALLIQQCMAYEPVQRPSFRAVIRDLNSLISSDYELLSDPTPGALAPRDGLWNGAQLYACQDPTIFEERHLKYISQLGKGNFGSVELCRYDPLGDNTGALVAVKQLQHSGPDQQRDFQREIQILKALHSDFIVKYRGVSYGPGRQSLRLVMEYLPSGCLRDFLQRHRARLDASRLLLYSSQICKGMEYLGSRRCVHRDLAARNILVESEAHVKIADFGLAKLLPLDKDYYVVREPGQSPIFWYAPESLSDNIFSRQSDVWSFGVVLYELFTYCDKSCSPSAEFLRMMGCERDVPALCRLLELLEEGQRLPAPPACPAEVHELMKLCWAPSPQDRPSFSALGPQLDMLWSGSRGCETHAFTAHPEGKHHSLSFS
From the text: as §1, §2

in vivo = experiment: in vivo
Experimental: Specifically, the experimental animals were twelve six-week-old C57BL/6 male mice. The experimental animals were housed in polycarbonate cages in groups of four, and had free access to food and water. The animal housing room was maintained at a temperature of 20±1°C and humidity of about 50±5%, with a constant 12-hour light/dark cycle. The experimental animals were acclimated to the animal room environment for one week, and then randomly divided into three groups of four animals each based on body weight.

T1 sequence (O60674 whole entry): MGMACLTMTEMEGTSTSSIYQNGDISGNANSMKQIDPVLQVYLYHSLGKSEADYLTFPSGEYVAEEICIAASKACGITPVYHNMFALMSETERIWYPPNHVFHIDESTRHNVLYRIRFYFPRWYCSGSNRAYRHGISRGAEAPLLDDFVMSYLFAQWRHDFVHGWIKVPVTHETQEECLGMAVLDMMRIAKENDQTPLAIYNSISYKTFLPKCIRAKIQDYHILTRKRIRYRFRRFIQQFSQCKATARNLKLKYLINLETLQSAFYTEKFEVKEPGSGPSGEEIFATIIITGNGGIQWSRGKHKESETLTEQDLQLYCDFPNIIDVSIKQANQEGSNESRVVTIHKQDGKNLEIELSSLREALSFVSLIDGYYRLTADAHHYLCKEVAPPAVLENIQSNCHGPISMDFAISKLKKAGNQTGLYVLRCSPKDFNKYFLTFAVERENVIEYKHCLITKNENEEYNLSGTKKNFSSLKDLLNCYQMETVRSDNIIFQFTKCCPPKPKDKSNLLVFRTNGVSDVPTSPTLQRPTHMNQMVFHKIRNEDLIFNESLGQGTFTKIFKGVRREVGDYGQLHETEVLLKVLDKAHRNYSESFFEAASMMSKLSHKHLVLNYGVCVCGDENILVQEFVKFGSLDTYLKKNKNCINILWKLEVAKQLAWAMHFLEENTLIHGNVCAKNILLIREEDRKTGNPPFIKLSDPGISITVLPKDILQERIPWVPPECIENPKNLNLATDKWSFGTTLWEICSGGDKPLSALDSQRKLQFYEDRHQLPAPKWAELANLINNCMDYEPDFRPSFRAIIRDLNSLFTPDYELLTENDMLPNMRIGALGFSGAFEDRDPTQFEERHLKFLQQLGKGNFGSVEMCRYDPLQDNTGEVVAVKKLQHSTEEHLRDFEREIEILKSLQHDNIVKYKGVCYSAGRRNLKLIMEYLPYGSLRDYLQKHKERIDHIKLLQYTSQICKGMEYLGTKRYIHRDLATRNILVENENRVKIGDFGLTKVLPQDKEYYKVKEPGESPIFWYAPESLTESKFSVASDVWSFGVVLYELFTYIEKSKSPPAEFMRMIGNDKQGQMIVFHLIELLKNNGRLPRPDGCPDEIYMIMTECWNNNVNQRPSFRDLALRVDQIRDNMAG

C[C@@H]1CCN(C(=O)CC#N)C[C@@H]1N(C)c1ncnc2c1ccn2C(=O)Nc1ccccc1N [Example 1, N-(2-aminophenyl)-4-(((3R,4R)-1-(2-cyanoacetyl)-4-methylpiperidin-3-yl) (methyl)amino)-7H-pyrrolo[2,3-d]pyrimidine-7-carboxamide]
activity at 10 µM (Raw 264.7 cell line): 77.4 ± 0.52%
activity at 10 µM (IL-6 (Interleukin-6)): 93.6 ± 0.6%
inhibition at 10 µM (splenocytes): 55 ± 8.48%
JAK 2 Activity (JAK 2; 0.1 nM): 100
JAK 2 Activity (JAK 2; 1 nM): 92
JAK 2 Activity (JAK 2; 10 nM): 69
JAK 2 Activity (JAK 2; 100 nM): 16
JAK 3 Activity (JAK 3; 0.1 nM): 94
JAK 3 Activity (JAK 3; 1 nM): 95
JAK 3 Activity (JAK 3; 10 nM): 55
JAK 3 Activity (JAK 3; 100 nM): 16
MTD at 4 days (in vivo; male, mouse, in vivo, po): 1600 mg/kg
mortality (in vivo; mice, oral once daily, 200, 400, 800, 1,600 mg/kg escalated daily): no mortality was observed
